{"source": "patent US20110244058A1", "about": "“Compositions and methods for treatment of pulmonary diseases and conditions” (priority 2008, published 2011)", "remark": "listed apart in the source", "key": {"[1]": {"system": "mice with LPS-induced sepsis", "conditions": "eight mice per group; intranasal drip pulmonary delivery at 0, 6, 23.5 hr; LPS 50 μg at 24 hour; control three out of eight died", "experimental": "In all three groups, LPS-induced sepsis was caused by delivery of highly concentrated LPS (50 μg) at 24 hour. […] In the steroid-treated mice, an inhaled corticosteroid (ICS) was delivered for 5 minutes through intranasal drip pulmonary delivery at 0 hr, 6 hr, and 23.5 hr. In the control group, no drug was administered prior to inducing LPS sepsis."}, "[2]": {"system": "Brown Norway (BN) rats sensitized to ragweed pollen extract", "conditions": "aerosolized 0.05% brimonidine or 0.005% dexmedetomidine for 10 minutes before ragweed extract, FIG. 3", "procedure": "The control group rats were pretreated with aerosolized saline and administered aerosolized saline. The saline group rats were pretreated with aerosolized saline, then exposed to aerosolized ragweed extract for 10 minutes.\nAt 10 minutes after completion of the allergen exposure, rats were anesthetized and exsanguinated, and their lungs were lavaged with 50 ml of buffer solution. The resulting bronchoalveolar lavage (BAL) fluid was centrifuged to remove the cells, and the supernatants were analyzed for albumin concentration using an ELISA assay for rat albumin."}, "[3]": {"assay": "Ionization as a function of pH", "assay_type": "physicochemical", "source_text": "At a lower pH and a lower lipophilicity, bronchial mucosal membrane retention time is maximized and mucosal penetration is reduced. More of a drug is washed away and less is absorbed into lung parenchyma increasing the surface mucosal effect. The higher the lipophilicity, the greater is the selective α-2 agonist's penetration through the lipophilic mucosal cell membranes. This is because at a more alkaline pH, more of the compound is present in a non-ionized form.\nWhen a selective α-2 agonist is lipophilic, it becomes highly ionized as it enters the distal esophagus and stomach. […] Thus, it is very poorly absorbed in lipophilic membranes of the gastrointestinal tract and therefore, results in less systemic absorption."}, "[4]": {"source_text": "The terms “salt” and “constituent of a balanced salt solution” are used interchangeably for the purposes of the present invention. They are a subset of agents that improve solubility of the inventive formulations."}, "[5]": {"source_text": "The doses are estimates only, assuming less than 20% nebulized DTL (dose to lung).", "remark": "listed apart in the source"}, "[6]": {"system": "α-2 over α-1 adrenergic receptors", "conditions": "cited from earlier work"}, "[7]": {"conditions": "cited from earlier work"}}, "note": "Read-outs that look alike come from different tables or passages of the source."}
{"smiles": "Brc1c(NC2=NCCN2)ccc2nccnc12.O=C(O)C(O)C(O)C(=O)O", "note": "[brimonidine, 5-bromo-6-(2-imidazolin-2-ylamino)quinoxaline D-tartrate]", "values": [{"measurement": "deaths because of LPS-induced sepsis", "setting": "[1]", "result": "no animals died"}, {"measurement": "BAL albumin concentration after ragweed exposure", "setting": "[2]", "result": "no apparent protective effect"}]}
{"smiles": "Cc1cccc([C@H](C)c2cnc[nH]2)c1C", "note": "[dexmedetomidine]", "values": [{"measurement": "ionized", "setting": "[3]; in pharynx (pH is about 6.8)", "result": "about 65%"}, {"measurement": "ionized", "setting": "[3]; in stomach (pH of less than 5.0)", "result": "~100", "unit": "%"}, {"measurement": "ionized", "setting": "[3]; lungs and airways, pH about 7.4 to 7.8", "result": "10-23%"}, {"measurement": "ionized", "setting": "[3]; pH of 6.7", "result": "about 65%"}, {"measurement": "non-ionized", "setting": "[3]; pH of 6.7", "result": "about 35%"}, {"measurement": "ionized", "setting": "[3]; pH of 8.0 or greater", "result": "about 10%"}, {"measurement": "non-ionized", "setting": "[3]; pH of 8.0 or greater", "result": "about 90%"}, {"measurement": "max soluble concentration, BSS solution", "setting": "[4]; pH 7", "result": "≧0.10%"}, {"measurement": "soluble concentration with constituents of a balanced salt solution", "setting": "[4]; pH 7.1", "result": "≥ 0.1", "unit": "%"}, {"measurement": "wheeze-auscultation score", "setting": "[5]; nebulized 0.03% at pH 5.0, reduced from baseline 10, scale for mild asthma", "result": "about 5"}, {"measurement": "lung effects (wheeze and airway resistance versus baseline)", "setting": "[5]; nebulized 0.03% at pH 8.0, versus pH 5.0", "result": "the lung effects are greater"}, {"measurement": "max soluble concentration", "setting": "pH 6", "result": 0.195, "unit": "%"}, {"measurement": "max soluble concentration", "setting": "pH 6.4", "result": 0.060, "unit": "%"}, {"measurement": "max soluble concentration", "setting": "pH 7", "result": 0.023, "unit": "%"}, {"measurement": "max soluble concentration", "setting": "pH 7.4", "result": 0.015, "unit": "%"}, {"measurement": "max soluble concentration", "setting": "pH 8", "result": 0.013, "unit": "%"}, {"measurement": "BAL albumin concentration after ragweed exposure", "setting": "[2]", "result": "albumin levels similar to those of control rats"}, {"measurement": "solubility", "setting": "physchem; pH 6, aqueous buffer", "result": 1950, "unit": "µg/mL"}, {"measurement": "solubility", "setting": "physchem; pH 6.4, aqueous buffer", "result": "~600", "unit": "µg/mL"}, {"measurement": "solubility", "setting": "physchem; pH 7, aqueous buffer", "result": 224, "unit": "µg/mL"}, {"measurement": "solubility", "setting": "physchem; pH 7.4, aqueous buffer", "result": "~150", "unit": "µg/mL"}, {"measurement": "solubility", "setting": "physchem; pH 8, aqueous buffer", "result": 134, "unit": "µg/mL"}, {"measurement": "α2/α1 selectivity", "setting": "[6]", "result": "over 1,500"}]}
{"smiles": "CNC1(c2ccccc2Cl)CCCCC1=O", "note": "(stereo not drawn) [ketamine]", "values": [{"measurement": "ionization", "setting": "[3]; pH of about 8.5", "result": "about 10%"}, {"measurement": "ionization", "setting": "[3]; physiologic pH", "result": "over 60%"}, {"measurement": "plasma level at which dissociative changes have been documented", "setting": "[7]; in vivo", "result": "≤ 1000", "unit": "ng/mL"}, {"measurement": "plasma level at which sedation occurs", "setting": "[7]; in vivo", "result": "about 9000 μg/L"}, {"measurement": "plasma levels with prior art inhalation forms", "setting": "[7]; inhalation", "result": "over 800 ug/L"}]}
